According to patent US12582657B2, “Combination therapy including a KRAS G12C inhibitor and one or more additional pharmaceutically active agents for the treatment of cancers” (Amgen Inc., priority 2018, dated 2026):
Read-outs that look alike come from different tables or passages of the source.

How the values were obtained:
[1] = tested on: ERK1/2 phosphorylation in NCI-H358 tumors; assay: Tumor pharmacodynamic assay (p-ERK, MSD immunoassay); details: Mus musculus, NCI-H358, po, 2 h, read-out: inhibition of p-ERK, reduction compared to control
[2] = tested on: ERK1/2 phosphorylation in MIA PaCa-2 T2 tumors; assay: as above; type: in vivo, mouse
NCI-H1322 cells = assay: Cell viability assay (CellTiter-Glo, adherent); type: cell-based; details: Homo sapiens, 72 h, read-out: Cell Viability IC50
Experimental: (§1) For adherent viability assays, 0.5-1.0E+03 cells were seeded per well in 384-well plates (or 2.5-4.0E+04 cells per well in 96-well plates) and incubated at 37° C., 5% CO2, o/n. The following day, serially-diluted compound or DMSO was added to the cells, and the plates were incubated at 37° C., 5% CO2 for 72 hours. Cell viability was measured using a CellTiter-Glo® Luminescent Cell Viability Assay kit (Promega) according to the manufacturer's protocol. The luminescence signal of treated samples was normalized to DMSO control.

A-427 cells = assay: Cell viability assay (CellTiter-Glo, adherent); type: cell-based; details: Homo sapiens, A-427, lung, KRAS p.G12D heterozygous, 72-hour treatment
Experimental: as §1

LS 174T cells = assay: Cell viability assay (CellTiter-Glo, adherent); type: cell-based; details: Homo sapiens, LS174T, colon, KRAS p.G12D heterozygous, 72-hour treatment
Experimental: as §1

AsPC-1 cells = assay: Cell viability assay (CellTiter-Glo, adherent); type: cell-based; details: Homo sapiens, ASPC1, AsPC-1, pancreas, KRAS p.G12D homozygous, 72-hour treatment
Experimental: as §1

HCC-827 cells = assay: Cell viability assay (CellTiter-Glo, adherent); type: cell-based; details: Homo sapiens, HCC827, HCC-827, lung, KRAS WT EGFR p.E746_A750del, 72-hour treatment
Experimental: as §1

NCI-H1355 cells = assay: Cell viability assay (CellTiter-Glo, adherent); type: cell-based; details: Homo sapiens, NCI-H1355, lung, KRAS p.G13C heterozygous, 72-hour treatment
Experimental: as §1

NCI-H2122 cells = assay: Cell viability assay (CellTiter-Glo, adherent); type: cell-based; details: Homo sapiens, NCI-H2122, lung, KRAS p.G12C homozygous, 72-hour treatment
Experimental: as §1

NCI-H2030 cells = assay: Cell viability assay (CellTiter-Glo, adherent); type: cell-based; details: Homo sapiens, NCI-H2030, lung, KRAS p.G12C homozygous, 72-hour treatment
Experimental: as §1

NCI-H358 cells = assay: Cell viability assay (CellTiter-Glo, adherent); type: cell-based; details: Homo sapiens, 72-hour treatment
Experimental: as §1

COLO-205 cells = assay: Cell viability assay (CellTiter-Glo, adherent); type: cell-based; details: Homo sapiens, COLO-205, colon, KRAS WT BRAF p.V600E, 72-hour treatment
Experimental: as §1

SW1573 cells = assay: Cell viability assay (CellTiter-Glo, adherent); type: cell-based; details: Homo sapiens, SW1573, lung, KRAS p.G12C homozygous, 72-hour treatment
Experimental: as §1

A549 cells = assay: Cell viability assay (CellTiter-Glo, adherent); type: cell-based; details: Homo sapiens, A549, lung, KRAS p.G12S homozygous, 72-hour treatment
Experimental: as §1

KM12 cells = assay: Cell viability assay (CellTiter-Glo, adherent); type: cell-based; details: Homo sapiens, KM12, colon, KRAS WT TPM3-NTRK fusion, 72-hour treatment
Experimental: as §1

SW1463 cells = assay: Cell viability assay (CellTiter-Glo, adherent); type: cell-based; details: Homo sapiens, SW1463, colon, KRAS p.G12C homozygous, 72-hour treatment
Experimental: as §1

SW837 cells = assay: Cell viability assay (CellTiter-Glo, adherent); type: cell-based; details: Homo sapiens, SW837, colon, KRAS p.G12C heterozygous, 72-hour treatment
Experimental: as §1

Calu-1 cells = assay: Cell viability assay (CellTiter-Glo, adherent); type: cell-based; details: Homo sapiens, Calu-1, lung, KRAS p.G12C heterozygous, 72-hour treatment
Experimental: as §1

UM-UC-3 cells = assay: Cell viability assay (CellTiter-Glo, adherent); type: cell-based; details: Homo sapiens, UMUC3, UM-UC-3, bladder, KRAS p.G12C homozygous, 72-hour treatment
Experimental: as §1

NCI-H1792 cells = assay: Cell viability assay (CellTiter-Glo, adherent); type: cell-based; details: Homo sapiens, NCI-H1792, lung, KRAS p.G12C heterozygous, 72-hour treatment
Experimental: as §1

NCI-H1373 cells = assay: Cell viability assay (CellTiter-Glo, adherent); type: cell-based; details: Homo sapiens, NCI-H1373, lung, KRAS p.G12C homozygous, 72-hour treatment
Experimental: as §1

NCI-H23 cells = assay: Cell viability assay (CellTiter-Glo, adherent); type: cell-based; details: Homo sapiens, NCI-H23, lung, KRAS p.G12C heterozygous, 72-hour treatment
Experimental: as §1

MIA PaCa-2 cells = assay: Cell viability assay (CellTiter-Glo, adherent); type: cell-based; details: Homo sapiens, 72-hour treatment
Experimental: as §1

SW480 cells = assay: Cell viability assay (CellTiter-Glo, adherent); type: cell-based; details: Homo sapiens, SW480, colon, KRAS p.G12V homozygous, 72-hour treatment
Experimental: as §1

[3] = tested on: MAPK, EGFR, AKT, S6, caspase-3 signaling in NCI-H358 and MIA PaCa-2; assay: Western blots of cellular signaling nodes; type: cell-based, human; details: 0.1 μM; both lines
Excerpt: This shifted species accumulated with increasing time and dose and was consistent with downstream inhibition of the MAPK pathway (i.e. p-MEK1/2 and p-ERK1/2) in both cell lines (FIGS. 41A and 41B).

In the case of `C=CC(=O)N1CCN(c2nc(=O)n(-c3c(C)ccnc3C(C)C)c3nc(-c4c(O)cccc4F)c(F)cc23)[C@@H](C)C1` (atropisomer, axis not shown) [AMG 510, 6-fluoro-7-(2-fluoro-6-hydroxyphenyl)-1-(4-methyl-2-(2-propanyl)-3-pyridinyl)-4-((2S)-2-methyl-4-(2-propenoyl)-1-piperazinyl)pyrido[2,3-d]pyrimidin-2(1H)-one], the inhibition at 100 mg/kg [1] is reported as 83%, the inhibition at 100 mg/kg ([2]; Mus musculus, MIA PaCa-2 T2, 100 mg/kg oral single dose, 2 hours post-treatment, read-out: inhibition of p-ERK, reduction compared to control) is reported as 69% and the “time of maximal inhibition of p-ERK post-treatment” value ([2]; single dose 10 mg/kg) is reported as 2 to 4 h. For the same compound, the IC50 (NCI-H1322 cells) was greater than 7.5 µM, the IC50 (A-427 cells) was greater than 7.5 µM and the IC50 (LS 174T cells) was greater than 7.5 µM. It also gave an IC50 (AsPC-1 cells) greater than 7.5 µM, an IC50 (HCC-827 cells) greater than 7.5 µM and an IC50 (NCI-H1355 cells) greater than 7.5 µM. For the same compound, the IC50 (NCI-H2122 cells) was 0.032 ± 0.005 µM, the IC50 (NCI-H2030 cells) was 0.006 ± 0.003 µM and the IC50 (NCI-H358 cells; first of two lines (FIG. 40G: NCI-H358), read-out: cellular viability IC50) was roughly 0.006 µM. The IC50 (NCI-H358 cells; NCI-H358, lung, KRAS p.G12C heterozygous, adherent, read-out: Cell Viability IC50) was 0.004 ± 0.001 µM, the IC50 (COLO-205 cells) was greater than 7.5 µM and the IC50 (SW1573 cells) was greater than 7.5 µM. It also gave an IC50 (A549 cells) greater than 7.5 µM, an IC50 (KM12 cells) greater than 7.5 µM and an IC50 (SW1463 cells) of 0.015 ± 0.007 µM. For the same compound, the IC50 (SW837 cells) was 0.009 ± 0.006 µM, the IC50 (Calu-1 cells) was 0.004 ± 0.001 µM and the IC50 (UM-UC-3 cells) was 0.005 ± 0.001 µM. The IC50 (NCI-H1792 cells) was 0.011 ± 0.008 µM, the IC50 (NCI-H1373 cells) was 0.02 ± 0.006 µM and the IC50 (NCI-H23 cells) was 0.006 ± 0.001 µM. It also gave an IC50 (MIA PaCa-2 cells; second of two lines (FIG. 40G: MIA PaCa-2), read-out: cellular viability IC50) of roughly 0.009 µM, an IC50 (MIA PaCa-2 cells; MIA PaCa-2, pancreas, KRAS p.G12C homozygous, adherent, read-out: Cell Viability IC50) of 0.005 ± 0.001 µM and an IC50 (SW480 cells) greater than 7.5 µM. For the same compound, the “duration of effects on MAPK and EGFR” value [3] was greater than 24 h, the “onset of effects on MAPK and EGFR” value [3] was less than 2 h and the “time at which p-S6 and caspase-cleavage effects emerged” value [3] was 8 to 16 h.
